# Laboratory results: US20110105397A1, “METHOD FOR TREATING HEART FAILURE WITH STRESSCOPIN-LIKE PEPTIDES” (priority 2009, published 2011)
# Where two headings read alike, the source gives them in different places.
# Assays:
# [1] = system: anaesthetized mongrel dogs; test: Hemodynamic, angiographic, echocardiographic profile in anaesthetized healthy dogs, 30-minute IV infusion; type: in vivo, dog; conditions: for CO (Cardiac output) / HR (Heart rate) / LV + dP/dt (LV contractility) / LVEDA (LV end diastolic area) / LVEDV (LV end diastolic volume) / LVEF (LV ejection fraction) / LVESA (LV end systolic area) / LVESV (LV end systolic volume) / LVFAS (LV fractional area of shortening) / PSAP (Peak systolic aortic pressure) / SV (Stroke volume): 30 min
# Protocol: The effects of h-SCP (SEQ ID NO: 1) on cardiovascular function were also assessed in anaesthetized mongrel dogs following intravenous bolus and 30-minute infusions. Hemodynamic and left ventricular systolic and diastolic function was evaluated using conventional hemodynamic, angiographic, echocardiographic, and radiographic methods with the results summarized in Table 16.
# The findings described above were further examined in a study, in which h-SCP (SEQ ID NO:1) was infused over a 30-minute period at the same total doses that were administered by bolus as described above with the results presented in Table 17 and FIGS. 11A & B. As in the case of bolus dosing h-SCP (SEQ ID NO:1) elicited dose- (infusion-) dependent changes in blood pressure, left ventricular systolic and diastolic function, and heart rate. However, at the lower range of the dose- (infusion-) response curve there was a pronounced lessening in the positive chronotropic and blood pressure response with marked and significant increase in cardiac function measured as increased CO and LVEF. […] The corresponding plasma concentration of h-SCP (SEQ ID NO:1) was 4,577 pg/mL.
# [2] = Nonclinical pharmacokinetics in dogs; parameters: species or system dog; conditions: in vivo; for Cmax: read-out: Cmax
# Protocol: A sandwich immunoassay was developed using an affinity purified goat polyclonal antibody, specific to h-SCP that was pre-coated onto a microplate with integrated electrodes. h-SCP molecules present in the sample will bind to the capture polyclonal antibody coated on the plate. After washing away any unbound substances, a sulfo-tagged mouse monoclonal anti-h-SCP antibody was added. This conjugated antibody will bind to the h-SCP molecules captured on the microplate and the quantity of analyte was determined by electrochemiluminescence. The amount of signal generated is directly proportional to the h-SCP concentration in the sample or standard. The standard curve range is 3.125-1600 pg/mL with a quantifiable range from 10-800 pg/mL. A sample volume of 25 μL (in duplicate) is required for this assay. This immunoassay is specific for human and dog stresscopin and human urocortin III (h-UCN3). […] After completion of the analysis, based on a comparison of reference standards between the ELISA and HPLC method, a correction factor of 1.57 was applied to all bioanalytical data.
# The nonclinical pharmacokinetics of h-SCP (SEQ ID NO:1) and pegylated stresscopin-like peptides were studied in rats, dogs, and cynomolgus monkeys (cyno). Nonclinical pharmacokinetic studies focused on characterization of IV infusion at pharmacologically relevant dose levels, supplemented with IV and SC bolus and toxicokinetic analysis.
# [3] = system: healthy subjects; test: Human hemodynamics, healthy subjects, 24- and 72-hour continuous IV infusion, 54 ng/kg/min; type: in vivo
# Protocol: Efficacy was based on the pharmacodynamic evaluation of hemodynamics, which was monitored using the noninvasive technique of impedance cardiography. Heart rate values were collected by impedance cardiography measurements. It was noted that the heart rate of subjects receiving placebo were elevated on the day of their infusions, at baseline before the infusion, and for the first 3 to 4 hours after the infusions were started (FIG. 17). Based on this observation, it appeared that there was a potential effect of period on the observed heart rate.
# Healthy subjects who received placebo had heart rates that decreased compared with baseline during the infusion.
# [4] = male, dog IV infusion 3 hours, M, 3.33 ng/kg/min
# [5] = male, dog IV infusion 3 hours, M, 8.33 ng/kg/min
# [6] = male, dog IV infusion 3 hours, M, 16.7 ng/kg/min
# [7] = male, dog IV infusion 3 hours, M, 33.3 ng/kg/min
substance,measurement,setting,value
"H-TKFTLSLDVPTNIMNLLFNIAKAKNLRAQAAANAHLMAQI-NH2 [SEQ ID NO: 1, TKFTLSLDVPTNIMNLLFNIAKAKNLRAQAAANAHLMAQI-NH2]",CO (Cardiac output),[1]; IV infusion 22 ng/kg/min,2.32 L/min
same,HR (Heart rate),[1]; IV infusion 22 ng/kg/min,81.2 beats/min
same,LV + dP/dt (LV contractility),[1]; IV infusion 22 ng/kg/min,1598 mmHg/sec
same,LVEDA (LV end diastolic area),[1]; IV infusion 22 ng/kg/min,12.2 cm^2
same,LVEDV (LV end diastolic volume),[1]; IV infusion 22 ng/kg/min,53.0 mL
same,LVEF (LV ejection fraction),[1]; IV infusion 22 ng/kg/min,54.0%
same,LVESA (LV end systolic area),[1]; IV infusion 22 ng/kg/min,6.3 cm^2
same,LVESV (LV end systolic volume),[1]; IV infusion 22 ng/kg/min,24.5 mL
same,LVFAS (LV fractional area of shortening),[1]; IV infusion 22 ng/kg/min,49%
same,PSAP (Peak systolic aortic pressure),[1]; IV infusion 22 ng/kg/min,95.0 mmHg
same,SV (Stroke volume),[1]; IV infusion 22 ng/kg/min,28.5 mL
same,CO (Cardiac output),[1]; IV infusion 43 ng/kg/min,2.82 L/min
same,HR (Heart rate),[1]; IV infusion 43 ng/kg/min,88.7 beats/min
same,LV + dP/dt (LV contractility),[1]; IV infusion 43 ng/kg/min,1875 mmHg/sec
same,LVEDA (LV end diastolic area),[1]; IV infusion 43 ng/kg/min,11.9 cm^2
same,LVEDV (LV end diastolic volume),[1]; IV infusion 43 ng/kg/min,55.2 mL
same,LVEF (LV ejection fraction),[1]; IV infusion 43 ng/kg/min,57.5%
same,LVESA (LV end systolic area),[1]; IV infusion 43 ng/kg/min,5.8 cm^2
same,LVESV (LV end systolic volume),[1]; IV infusion 43 ng/kg/min,23.5 mL
same,LVFAS (LV fractional area of shortening),[1]; IV infusion 43 ng/kg/min,51.5%
same,PSAP (Peak systolic aortic pressure),[1]; IV infusion 43 ng/kg/min,95.2 mmHg
same,SV (Stroke volume),[1]; IV infusion 43 ng/kg/min,31.7 mL
same,CO (Cardiac output),[1]; IV infusion 86 ng/kg/min,2.81 L/min
same,HR (Heart rate),[1]; IV infusion 86 ng/kg/min,91.0 beats/min
same,LV + dP/dt (LV contractility),[1]; IV infusion 86 ng/kg/min,1622 mmHg/sec
same,LVEDA (LV end diastolic area),[1]; IV infusion 86 ng/kg/min,11.8 cm^2
same,LVEDV (LV end diastolic volume),[1]; IV infusion 86 ng/kg/min,54.2 mL
same,LVEF (LV ejection fraction),[1]; IV infusion 86 ng/kg/min,56.5%
same,LVESA (LV end systolic area),[1]; IV infusion 86 ng/kg/min,5.9 cm^2
same,LVESV (LV end systolic volume),[1]; IV infusion 86 ng/kg/min,23.5 mL
same,LVFAS (LV fractional area of shortening),[1]; IV infusion 86 ng/kg/min,50.0%
same,PSAP (Peak systolic aortic pressure),[1]; IV infusion 86 ng/kg/min,91.7 mmHg
same,SV (Stroke volume),[1]; IV infusion 86 ng/kg/min,30.7 mL
same,CO (Cardiac output),[1]; IV infusion 146 ng/kg/min,2.97 L/min
same,HR (Heart rate),[1]; IV infusion 146 ng/kg/min,102.5 beats/min
same,LV + dP/dt (LV contractility),[1]; IV infusion 146 ng/kg/min,1594 mmHg/sec
same,LVEDA (LV end diastolic area),[1]; IV infusion 146 ng/kg/min,11.5 cm^2
same,LVEDV (LV end diastolic volume),[1]; IV infusion 146 ng/kg/min,49.5 mL
same,LVEF (LV ejection fraction),[1]; IV infusion 146 ng/kg/min,58.2%
same,LVESA (LV end systolic area),[1]; IV infusion 146 ng/kg/min,5.6 cm^2
same,LVESV (LV end systolic volume),[1]; IV infusion 146 ng/kg/min,20.7 mL
same,LVFAS (LV fractional area of shortening),[1]; IV infusion 146 ng/kg/min,51%
same,PSAP (Peak systolic aortic pressure),[1]; IV infusion 146 ng/kg/min,90.0 mmHg
same,SV (Stroke volume),[1]; IV infusion 146 ng/kg/min,28.7 mL
same,CO (Cardiac output),[1]; IV infusion 437 ng/kg/min,3.25 L/min
same,LV + dP/dt (LV contractility),[1]; IV infusion 437 ng/kg/min,1657 mmHg/sec
same,LVEDA (LV end diastolic area),[1]; IV infusion 437 ng/kg/min,10.8 cm^2
same,LVEDV (LV end diastolic volume),[1]; IV infusion 437 ng/kg/min,46.0 mL
same,LVEF (LV ejection fraction),[1]; IV infusion 437 ng/kg/min,60.7%
same,LVESA (LV end systolic area),[1]; IV infusion 437 ng/kg/min,5.1 cm^2
same,LVESV (LV end systolic volume),[1]; IV infusion 437 ng/kg/min,18.2 mL
same,LVFAS (LV fractional area of shortening),[1]; IV infusion 437 ng/kg/min,53.5%
same,PSAP (Peak systolic aortic pressure),[1]; IV infusion 437 ng/kg/min,89.5 mmHg
same,SV (Stroke volume),[1]; IV infusion 437 ng/kg/min,28 mL
same,HR (Heart rate),"[1]; IV infusion 437 ng/kg/min, junctional tachycardia",117.3 beats/min
same,minimum anticipated biological effect level (MABEL),[1]; healthy dogs,22 ng/kg/min
same,infusion rate for minimal effect,"[1]; healthy dogs, 30-minute infusion",43 ng/kg/min
same,half-life,"[2]; dog, dogs, two-compartment analysis, read-out: alpha-phase half-life (t1/2 alpha)",10 to 20 min
same,half-life,"[2]; dog, dogs, read-out: terminal phase half-life (converted)",~60 min
same,time to apparent steady-state plasma concentration after initiation of infusion,"[2]; dog, iv",≤ 1 h
same,clearance,"[2]; dog, dogs, 3.3 to 33.3 ng/kg/min, read-out: plasma clearance",~0.24 L/h/kg
same,half-life,"[2]; male, dog, iv, 33.3 ng/kg/min, dog IV infusion 3 hours, M, 33.3 ng/kg/min, read-out: t1/2 alpha",13.7 min
same,half-life,"[2]; male, dog, iv, 33.3 ng/kg/min, dog IV infusion 3 hours, M, 33.3 ng/kg/min, read-out: t1/2 terminal",65.3 min
same,Vd,"[2]; male, dog, iv, Vss",0.216 L/kg
same,half-life,"[2]; male, dog, iv, t1/2 alpha",15.9 min
same,half-life,"[2]; male, dog, iv, t1/2 terminal",59.6 min
same,AUC(0-inf),[2]; [4],2.34 ng·h/mL
same,clearance,"[2]; male, dog IV infusion 3 hours, M, 3.33 ng/kg/min, read-out: CL",0.257 L/h/kg
same,Cmax,[2]; [4],0.814 ng/mL
same,AUC(0-inf),[2]; [5],6.46 ng·h/mL
same,clearance,"[2]; male, dog IV infusion 3 hours, M, 8.33 ng/kg/min, read-out: CL",0.232 L/h/kg
same,Cmax,[2]; [5],2.38 ng/mL
same,AUC(0-inf),[2]; [6],12.8 ng·h/mL
same,clearance,"[2]; male, dog IV infusion 3 hours, M, 16.7 ng/kg/min, read-out: CL",0.239 L/h/kg
same,Cmax,[2]; [6],5.05 ng/mL
same,AUC(0-inf),[2]; [7],26.4 ng·h/mL
same,clearance,"[2]; male, dog IV infusion 3 hours, M, 33.3 ng/kg/min, read-out: CL",0.237 L/h/kg
same,Cmax,[2]; [7],10 ng/mL
same,Vd,"[2]; male, dog IV infusion 3 hours, M, 33.3 ng/kg/min, read-out: Vss",0.161 L/kg
same,time in which the increase in heart rate occurred,[3],≤ 15 min
